Data set [1] has as its system low-threshold calcium channels (LTCC). Nature of the data set: Intracellular recording of low-threshold calcium rebound spike in inferior olivary cells of brain slices (LTCC blockage). Type of data set: cell-based, guinea pig.
A further data set relates to bovine platelets. The conditions noted are these: cited from earlier work.
The subject of data set [2] is high-threshold calcium conductance (HTCC). The conditions noted are these: 10^-4 M butanol; sodium channel blocked by tetrodotoxin.
Data set [3] deals with tremor. Kind of data set: Harmaline-induced tremor, electromyogram of left platysma muscle. The data set is classed as in vivo, Sprague-Dawley rats. As for the experimental part:
In order to analyze the effects of LTCC-blocking agents in vivo, octanol was administered to rats. Alcohols were diluted with physiological saline and sonicated to ensure mixing to create a concentration of alcohol around the neurons equivalent to 10^-6 M (at most). The alcohol was administered intraperitoneally at a concentration of to 10 mM. […] (Harmaline is available from Sigma Chemical Co., St. Louis, M.) The thus-induced tremor has a periodicity similar to physiological or enhanced physiological tremor.
Therefore, study of I.O. cells of mammals in which tremor has been induced with harmaline provides an excellent in vivo model for studying tremor response in mammals.
Tremor can be measured by electromyogram conducted according to Buchthal, F., et al., Acta Physio. Scand. 39: 83-104, 1957, incorporated by reference.
The electric activity in the left platysma muscle of 278 to 300 g Sprague-Dawley rats (from Taconic Farms, Germantown, N.Y.) was recorded differentially using two teflon-coated stranded silver wires (2 mm of wire exposed) placed in the belly of the muscle. The electromyogram (emg) was recorded throughout the experiment and the data were analyzed at the following times: (1) before administration of any drugs; (2) after intraperitoneal injection of 15 mg/kg harmaline; and (3) after subsequent intraperitoneal injection of 2 cc of 10 mM 1-octanol (99% octanol sonicated in physiological saline) given to create a concentration of 9.3 micrograms/g of rat body weight or 7×10^-5 M in the vicinity of the neuronal cells (if all the alcohol was to be absorbed, and none metabolized). The emg was smoothed and differentiated (to further decrease the background noise) using a Nicolet Explorer Model 4060 digital oscilloscope (from Nicolet Instrument Corp., Madison, Wis.). This instrument was also used to obtain autocorrelograms of 800-ms sections of the emg's. Autocorrelograms were obtained by superimposing 800-ms sections of the emg signals. The emerging patterns (if any) can be used to determine frequency and amplitude characteristics of the emg that may not be readily discernible from the naked emg signal.

Another data set concerns squid axons. The conditions noted are these: octanol 10^-4 M; cited from earlier work.
Data set [4] in a line: Solubility in aqueous media. Type of data set: physicochemical. The conditions noted are these: relative to most effective concentration for blocking LTCC.
The subject of another data set is LTCC. Kind of data set: Voltage clamp study of LTCC in I.O. neurons. The data set is classed as cell-based, guinea pig. Particulars: octanol 10^-6 M; depolarization steps of 5 mV from holding potential -80 mV. The text has this:
Adult Hartley guinea pigs (400-600 g) from Camm Research Institute, Wayne, N.J. were decapitated, after ether anesthesia, using a small animal guillotine. Immediately thereafter, two longitudinal sections were made along the lateral edge of the squamous portion of the occipital bone. The resulting bone slab was cut transversely, and pulled caudalward to expose the cerebellum and brain stem. […] It was then transected longitudinally in a parasagittal plane and fixed to a Vibratome Model G plate (available from Ted Pella, Inc., Tustin, Calif.) in order to obtain thin longitudinal sections. From a single brain stem, six 300-micron slices could be obtained. Following sectioning, the slices were incubated in Ringer's solution for approximately one hour. The bathing medium was kept at room temperature and a mixture of 95% O2 and 5% CO2 was bubbled into the bath during this period. Brain stem slices were removed from the incubation bath after one hour but could be kept in good condition in the bath for periods of time up to 24 hours. […]
The results presented in this Example were recorded in I.O. neurons from different parts of the nucleus. […] In these experiments, the ionic current across the membrane was measured after a voltage clamp pulse was applied across the membrane. […]

The subject of data set [5] is tremor. Particulars: cited from earlier work.
The conditions of data set [6]: read-out: Blood level; one or two drinks of an alcohol-containing beverage; cited from earlier work.
Data set [7] relates to synaptosomes isolated from rat brains. Particulars: ethanol 2.5×10^-2 -1.5×10^-1 M; cited from earlier work.
For data set [8], the system named is rat brain synaptic membrane vesicles. Particulars: 10^-1 M; cited from earlier work.
For data set [9] the following is noted: in vivo; cited from earlier work.
Setting [10] is: complete blockage of LTCC, for hexanol through decanol nominal, 10^-6 M at most (not fully soluble).
[11] abbreviates: 2 cc of 10 mM 1-octanol i.p. after harmaline 15 mg/kg i.p.
[12] abbreviates: harmaline 15 mg/kg i.p., no alcohol.

Read-outs that look alike come from different tables or passages of the source.

Take `CCCCCCCO` [heptanol]: the “Preferred highest molar concentration / operative range for substantial and total blockage of LTCC: From About” value in data set [1] (setting [10]) is given as ~10^-6 M.
Still for that read-out and setting: next, `CCCCCO` [pentanol]: ~10^-6 M; `CCCCCCCCCO` [nonanol]: ~10^-6 M.
Take `CCCCO` [butanol]: in [1], the “Inhibition of the LTCC or rebound spike” value is “inhibition of the LTCC or rebound spike”; the “Preferred highest molar concentration / operative range for substantial and total blockage of LTCC: To About” value is ~10^-6. The “Inhibition of calcium mobilization” value in the data set on bovine platelets (5×10^-2 M) is given as “inhibitors of calcium mobilization”. Besides, the “Effect on the HTCC” value in [2] is “absence of any effect on the HTCC”.
On to `CCCCCCCCCCO` [decanol], for which, in data set [1] (setting [10]), the “Preferred highest molar concentration / operative range for substantial and total blockage of LTCC: From About” value is on record as ~10^-6 M.
In the case of `CCCCCCO` [hexanol], the “Preferred highest molar concentration / operative range for substantial and total blockage of LTCC: From About” value in [1] (setting [10]) is reported as ~10^-6 M. In the data set with bovine platelets (5×10^-3 (unit not given)), the “Inhibition of calcium mobilization” value is given as “inhibitors of calcium mobilization”.
On to `CCCCCCCCO` [octanol, 1-octanol], for which the “Blockage of calcium-dependent rebound potentials (LTCC)” value in data set [1] (10^-6 M octanol in bath, sodium spike blocked with 10^-6 M tetrodotoxin) was “complete blockage of the calcium-dependent rebound potentials”. Besides, in data set [1] (10^-6 M octanol, hyperpolarizing square current pulse, 10^-6 M tetrodotoxin), the “Blockage of the rebound calcium spike following membrane hyperpolarization” value is on record as “blocked”. For the same compound, in data set [1] (setting [10]), the “Preferred highest molar concentration / operative range for substantial and total blockage of LTCC: From About” value is given as ~10^-6 M. In addition, in the data set on tremor [3] (setting [11]), the Baseline muscle activity entry is given as “reduced below control levels”; the “Dominant frequency of emg” value is reported as 10 Hz; the “Tremor after harmaline and alcohol” value is given as “the tremor stopped”. Moreover, in the data set on squid axons, the “Observed intracellular calcium concentration” value is on record as “apparent increase in the observed intracellular calcium concentration”. In data set [4], the “Solubility in aqueous media” value was “corresponds closely to the most effective concentration for blocking the LTCC”. The “Blockage of low-threshold calcium ionic current” value in the data set with LTCC is listed as “completely blocked the ionic conductance”.
On to `COc1ccc2c3c([nH]c2c1)C(C)=NCC3` [harmaline, reference compound], for which the Tremor induction result in the data set on tremor [3] (harmaline 15 mg/kg i.p.) is listed as “periods of generalized tremor”. Moreover, in the data set with tremor [3] (setting [12]), the “Degree of autocorrelation of emg” value was “high degree of autocorrelation” and the “Dominant frequency of tremor” value is recorded as 7.5 Hz. In addition, in the data set on tremor [5], the “Induction of tremor in mammals (known)” value is “known to induce tremor in mammals”.
`CCO` [ethanol]: the concentration in data set [6] was about 10000 µM. Besides, in data set [1], the “Preferred highest molar concentration / operative range for substantial and total blockage of LTCC: From About” value is on record as ~10^-3; the “Preferred highest molar concentration / operative range for substantial and total blockage of LTCC: To About” value is on record as ~10^-4. Further, the “Inhibition of voltage-dependent calcium uptake” value in [7] was “inhibited voltage-dependent calcium uptake”. Besides, in [8], the “Inhibition of calcium influxes” value is on record as “inhibited calcium influxes”. Besides, the “Intoxicating and addictive properties” value in data set [9] was “well-known”.

The record behind these values is patent US4897426A, “Method for blocking calcium channels” (New York University, priority 1989, dated 1990).
